Format in all cases: cell-based
For experiment [1], the target named is T1, PUP1 nuclear base transporter (Arabidopsis thaliana, UniProt Q9FZ96, S63G).
T1 construct: The PUP1 protein expressed by the yeast strain MG887ura3^−::pFL61-PUP1; expressed in transfected cells; host or cells: Saccharomyces cerevisiae MG887ura3- (fcy2), plasmid pFL61-PUP1
The experiment in a line: Uptake of radioactively labelled adenine and cytosine by yeast strain MG887ura3-::pFL61-PUP1. As for the experimental part:
(§1) For measuring the rate of uptake the yeast strains MG887ura3^−::pFL61, MG887ura3^−::pFL61-PUP1 and their original strain Σ1278b (Dubois & Grenson, 1979, Mol. Gen. Genet. 175, 67–76) were cultured in complete medium (YPD) without uracil and with 2% glucose as carbon source up to an OD600 of 0.6 at 28° C. The cells were harvested at 3000 g, washed twice with water and brought to an OD600 of 12 with sodium phosphate buffer (100 mM, pH 4.5), 1% glucose. The cell suspension was stored in 100 μl portions on ice up to the beginning of the uptake measurements. Before the start of the uptake measurements the cells were pre-incubated at 30° C. for 2 minutes. The reaction was then started, by which 100 μl of radioactively labelled substrate solution was added to 100 μl cell suspension. The reaction mixture was incubated at 30° C. and after 30, 60, 120 and 180 seconds in each case 50 μl of suspension was withdrawn and placed in 4 ml of ice-cold water (in measurements over 180 seconds more cell suspension and substrate solution were correspondingly added). The cells were absorbed on to glass fibre filters and washed with 4 ml of ice-cold water. The radioactivity on the filters was finally ascertained in a liquid scintillation counter.
(§2) Substrate solution: For the substrate solution what is concerned is a 100 mM sodium phosphate buffer pH 4.5 with 1% glucose and 9.25 Bq/μl of radioactively labelled substrate (25–100 μM [^14C] adenine or [^14C] cytosine). In addition the substrate solution contains the unlabelled substrate, possible inhibitors and competitors in double end-concentration. For estimation of the optimum pH the pH value of the sodium phosphate buffer is also changed. When the influence of glucose on the uptake rate is measured neither the cell suspension nor the substrate solution contains glucose. Glucose is only added after starting the uptake measurements at the commencement of measuring at an end-concentration of 1%.
(§3) In Table 1 the uptake of radioactively labelled adenine and cytosine mediated by the PUP1 nuclear base transporter is indicated by the yeast strain MG887ura3^−::pFL61-PUP1. For calculation of the intracellular concentration the cell volume is estimated as four times the dry weight (Ninnemann et al., 1994, EMBO J. 15, 3464–3471). The uptake occurs against a concentration gradient.

For experiment [2], the target named is T2, PUP1 nuclear base transporter (Arabidopsis thaliana, UniProt Q9FZ96).
T2 construct: The PUP1 protein expressed by the yeast strain MG887ura3^−::pFL61-PUP1; expressed in transfected cells; host or cells: Saccharomyces cerevisiae MG887ura3- (fcy2), plasmid pFL61-PUP1
The description is as above. The conditions noted are these: initial concentration medium 200 μM; intracellular, cell volume estimated as four times the dry weight. As to the method: as §1, §2, §3

In another experiment the target is PUP1 (Arabidopsis thaliana, UniProt Q9FZ96, S63G). The experiment in a line: Voltage and current measurement in Xenopus oocytes expressing PUP1. More on the design: a primer was used which demolishes the STOP codon of PUP1 and simultaneously inserts a NotI excision site; expressed in transfected cells; host or cells: Xenopus oocytes injected with in vitro transcribed RNA. As to the method:
The one-way directed currents are measured as soon as adenine is added. The current strength is dependent on the concentration (bars indicate the current on the ordinate and the time on the abscissa).
The cDNA for PUP1 was excised with NotI and cloned in an oocyte expression vector containing untranslated 5′ and 3′ regions of the β-globin from Xenopus. The cDNA was then replicated by means of PCR. SP6 (from the oocyte vector) was used as upstream primer, as downstream primer a primer was used which demolishes the STOP codon of PUP1 and simultaneously inserts a NotI excision site. This PCR fragment was excised by NotI and HindIII and ligated into an oocyte expression vector which in addition contains behind the NotI excision site the gene for GFP (“green fluorescent protein” from the jellyfish). In that way an open reading-frame is constructed for a fusion protein from PUP1 and GFP. By insertion of the NotI excision site a linker with three base pairs coding for alanine is constructed. The plasmid was linearized with MIuI, and RNA was transcribed in vitro by means of SP6 polymerase and absorbed into water to about 1 ng/nl. Each oocyte (ripening stage 5 to 6) was injected with 50 nl. […]
For voltage measurement a glass electrode filled with 3M KCl was stuck into the oocyte. With a Dagan amplifier the potential was measured relative to the reference electrode. […]

The target in the next experiment is T3, PUP2 (Arabidopsis thaliana, UniProt Q94GB1).
T3 construct: expressed in transfected cells; host or cells: Saccharomyces cerevisiae (inferred)
T3 sequence (Q94GB1 1-347 isoform Q94GB1-2): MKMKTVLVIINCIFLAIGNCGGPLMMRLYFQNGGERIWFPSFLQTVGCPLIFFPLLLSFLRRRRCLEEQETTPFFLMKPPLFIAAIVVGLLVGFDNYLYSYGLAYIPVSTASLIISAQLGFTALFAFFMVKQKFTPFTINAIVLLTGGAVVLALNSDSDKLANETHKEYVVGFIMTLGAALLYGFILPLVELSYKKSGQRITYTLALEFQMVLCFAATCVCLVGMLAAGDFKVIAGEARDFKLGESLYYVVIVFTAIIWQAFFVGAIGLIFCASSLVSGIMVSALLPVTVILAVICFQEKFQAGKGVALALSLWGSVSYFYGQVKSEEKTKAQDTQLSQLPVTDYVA
Description: Adenine transport by PUP2. As for the experimental part:
as §2

A further experiment addresses T4, FCY2 transporter (Saccharomyces cerevisiae, UniProt P17064).
T4 construct: in comparison to the yeast's own FCY2 transporter; endogenous in cells
T4 sequence (P17064 1-533): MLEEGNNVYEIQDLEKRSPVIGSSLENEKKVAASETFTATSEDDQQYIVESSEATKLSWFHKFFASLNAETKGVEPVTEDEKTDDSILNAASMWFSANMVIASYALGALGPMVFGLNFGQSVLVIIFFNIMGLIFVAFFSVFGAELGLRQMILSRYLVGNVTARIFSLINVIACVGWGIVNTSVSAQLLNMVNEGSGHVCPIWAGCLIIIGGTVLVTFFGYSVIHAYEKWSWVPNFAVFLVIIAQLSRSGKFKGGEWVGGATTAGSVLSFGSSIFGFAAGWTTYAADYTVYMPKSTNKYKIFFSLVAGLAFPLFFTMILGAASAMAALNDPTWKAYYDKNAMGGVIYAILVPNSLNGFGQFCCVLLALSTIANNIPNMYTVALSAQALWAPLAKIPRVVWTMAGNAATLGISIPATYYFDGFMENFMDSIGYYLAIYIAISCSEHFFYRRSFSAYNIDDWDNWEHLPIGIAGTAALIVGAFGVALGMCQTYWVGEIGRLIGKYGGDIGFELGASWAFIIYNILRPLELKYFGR
The experiment in a line: Adenine uptake by the yeast's own FCY2 transporter (competition experiment reference). As to conditions: substrate concentration 25 μM. As to the method:
as §1, with “The reaction mixture was incubated at 30° C. and after 30, 60, 120 and 180 seconds in each case 50 μl of suspension was withdrawn and placed in 4 ml of ice-cold water (in measurements over 180 seconds more cell suspension and substrate solution were correspondingly added). The cells were absorbed on to glass fibre filters and washed with 4 ml of ice-cold water.” left out
Substrate solution: For the substrate solution what is concerned is a 100 mM sodium phosphate buffer pH 4.5 with 1% glucose and 9.25 Bq/μl of radioactively labelled substrate (25–100 μM [^14C] adenine or [^14C] cytosine). […] When the influence of glucose on the uptake rate is measured neither the cell suspension nor the substrate solution contains glucose. […]

T1 sequence (Q9FZ96 whole entry S63G): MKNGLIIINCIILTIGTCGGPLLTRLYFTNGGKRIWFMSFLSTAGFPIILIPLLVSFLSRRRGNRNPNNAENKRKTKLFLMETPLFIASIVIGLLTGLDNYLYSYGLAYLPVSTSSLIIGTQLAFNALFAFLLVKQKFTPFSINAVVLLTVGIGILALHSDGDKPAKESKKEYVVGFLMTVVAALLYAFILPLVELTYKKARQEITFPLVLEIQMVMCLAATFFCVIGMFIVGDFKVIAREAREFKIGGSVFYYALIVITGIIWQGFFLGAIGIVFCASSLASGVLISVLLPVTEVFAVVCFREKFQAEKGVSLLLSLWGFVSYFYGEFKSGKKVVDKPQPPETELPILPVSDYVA
Chain of PUP1 (Q9FZ96 whole entry S63G): as above
T2 sequence (Q9FZ96 whole entry S63G): as above

With `Nc1ncnc2nc[nH]c12` [Adenine, adenine], in experiment [1] (cells versus medium, initial concentration medium 200 μM), the Enrichment factor was 15. In addition, the “End conc. Medium” value in experiment [1] (initial concentration medium 200 μM, yeast strain MG887ura3-::pFL61-PUP1) was 155 µM. In addition, the “Uptake of radioactively labelled adenine (set at 100%)” value in experiment [1] (substrate concentration 25 μM, PUP1 expressed in yeast) is given as 1.7 nmol.min^−1 .mg^−1 dry weight; on FCY2 transporter it was 0.9 nmol.min^−1 .mg^−1 dry weight. Moreover, the “End conc Cells” value in experiment [2] is 2350 µM. In addition, the “Effect on oocyte membrane potential” value at PUP1 (adenine in the bath solution, resting potential about -30 mV at pH 7.3) is on record as “provokes depolarization of the oocyte”. Also, on PUP1 (oocytes held at a voltage of -80 mV), the Effect on current result was “induces a current in one direction”. Further, the “Transport by PUP2” value at PUP2 is listed as “in a position to transport adenine”.

The values are drawn from US7179954B1, “Isolated nucleic acids coding for a nuclear base transporter and uses thereof” (Carnegie Insitution of Washington, priority 1999, dated 2007).
